Patent US20210040118A1, “IMMUNOMODULATORS, COMPOSITIONS AND METHODS THEREOF” (BETTA PHARMACEUTICALS CO., LTD, priority 2018, published 2021)

These compounds were tested against T1, PD-1/PD-L1 (Homo sapiens, UniProt Q9NZQ7) (assay: PD-1/PD-L1 homogenous time-resolved fluorescence (HTRF) binding assay). Conditions: recombinant human PD-L1 (19-238) His-tag / human PD-1 (25-167) Fc tag, class symbols.
T1 construct: Recombinant human PD-L1 protein (19-238) with a His-tag at the C-terminus; purchased AcroBiosystems PD1-H5229 (PD-L1); PD1-H5257 (PD-1)
T1 sequence (Q9NZQ7 19-238): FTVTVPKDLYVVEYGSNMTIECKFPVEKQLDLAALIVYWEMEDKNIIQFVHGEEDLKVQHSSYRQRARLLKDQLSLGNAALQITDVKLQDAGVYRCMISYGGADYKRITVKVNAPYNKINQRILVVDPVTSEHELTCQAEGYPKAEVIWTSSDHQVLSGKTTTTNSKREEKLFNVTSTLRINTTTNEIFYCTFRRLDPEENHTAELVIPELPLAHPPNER
Procedure: Resolved Fluorescence (HTRF) Binding Assay
The assays were conducted in a standard black 384-well polystyrene plate with a final volume of 20 μL. Inhibitors were first serially diluted in DMSO and then added to the plate wells before the addition of other reaction components. The final concentration of DMSO in the assay was 1%. The assays were carried out at 25° C. in the PBS buffer (pH 7.4) with 0.05% Tween-20 and 0.1% BSA. Recombinant human PD-L1 protein (19-238) with a His-tag at the C-terminus was purchased from AcroBiosy stems (PD1-H5229). Recombinant human PD-1 protein (25-167) with Fc tag at the C-terminus was also purchased from AcroBiosystems (PD1-H5257). PD-L1 and PD-1 proteins were diluted in the assay buffer and 10 μL was added to the plate well. Plates were centrifuged and proteins were preincubated with inhibitors for 40 min. The incubation was followed by the addition of […] of HTRF detection buffer supplemented with Europium cryptate-labeled anti-human IgG (PerkinElmer-AD0212) specific for Fc and anti-His antibody conjugated to SureLight®-Allophycocyanin (APC, PerkinElmer-AD0059H). After centrifugation, the plate was incubated at 25° C. for 60 min. Before reading on a PHERAstar FS plate reader (665 nm/620 nm ratio). Final concentrations in the assay were […] PD1, 10 nM PD-L1, 1 nM europium anti-human IgG and 20 nM anti-His-Allophycocyanin. IC50 determination was performed by fitting the curve of percent control activity versus the log of the inhibitor concentration using the GraphPad Prism 5.0 software.
Data obtained for the Example compounds using the PD-1/PD-L1 homogenous time-resolved fluorescence (HTRF) binding assay described in Example A is provided in Table 4.

IC50, < 0.025 µM:
Cc1c(NC(=O)c2nc3c(s2)CN(C(C)CO)CC3)cccc1-c1cccc(NC(=O)c2nc3c(s2)CN(C(C)CO)CC3)c1C (stereo not drawn) [Example 45, N,N′-(2,2′-dimethyl-[1,1′-biphenyl]-3,3′-diyl)bis(5-(1-hydroxypropan-2-yl)-4,5,6,7-tetrahydrothiazolo[5,4-c]pyridine-2-carboxamide)]
CC(c1nc2c(s1)CN(C)CC2)N1CCc2c(-c3cccc4c3CCN4C(C)c3nc4c(s3)CN(C)CC4)cccc21 (stereo not drawn) [Example 47, 1,1′-bis(1-(5-methyl-4,5,6,7-tetrahydrothiazolo[5,4-c]pyridin-2-yl)ethyl)-4,4′-biindoline]
Cc1c(NC(=O)c2nc3c(s2)CNCC3)cccc1-c1cccc(NC(=O)c2nc3c(s2)CNCC3)c1Cl [Example 48, N,N′-(2-chloro-2′-methylbiphenyl-3,3′-diyl)bis(4,5,6,7-tetrahydrothiazolo[5,4-c]pyridine-2-carboxamide)]
Cc1c(NC(=O)c2nc3c(s2)CN(C)CC3)cccc1-c1cccc(NC(=O)c2nc3c(s2)CN(C)CC3)c1Cl [Example 49, N,N′-(2-chloro-2′-methylbiphenyl-3,3′-diyl)bis(5-methyl-4,5,6,7-tetrahydrothiazolo[5,4-c]pyridine-2-carboxamide)]
Cc1c(NC(=O)c2nc3c(s2)CNCC3)cccc1-c1cccc(NC(=O)c2nc3c(s2)CN(C)CC3)c1Cl [Example 50, N-(2-chloro-2′-methyl-3′-(4,5,6,7-tetrahydrothiazolo[5,4-c]pyridine-2-carboxamido)biphenyl-3-yl)-5-methyl-4,5,6,7-tetrahydrothiazolo[5,4-c]pyridine-2-carboxamide]
Cc1nc(C(=O)Nc2cccc(-c3cccc(NC(=O)c4nc(C)c(CNCCO)s4)c3C)c2C)sc1CNCCO [Example 51, N,N′-(2,2′-dimethylbiphenyl-3,3′-diyl)bis(5-((2-hydroxyethylamino)methyl)-4-methylthiazole-2-carboxamide)]
Cc1nc(C(=O)Nc2cccc(-c3cccc(NC(=O)c4nc(C)c(CN5CCCC[C@H]5C(=O)O)s4)c3C)c2C)sc1CN1CCCC[C@H]1C(=O)O [Example 52, (2S,2'S)-1,1′-(2,2′-(2,2′-dimethylbiphenyl-3,3′-diyl)bis(azanediyl)bis(oxomethylene)bis(4-methylthiazole-5,2-diyl))bis(methylene)dipiperidine-2-carboxylic acid]
Cc1nc(C(=O)Nc2cccc(-c3cccc(NC(=O)c4nc(C)c(CN[C@H](C(=O)O)C5CCOCC5)s4)c3C)c2C)sc1CN[C@H](C(=O)O)C1CCOCC1 [Example 53, (2S,2'S)-2,2′-(2,2′-(2,2′-dimethylbiphenyl-3,3′-diyl)bis(azanediyl)bis(oxomethylene)bis(4-methylthiazole-5,2-diyl))bis(methylene)bis(azanediyl)bis(2-(tetrahydro-2H-pyran-4-yl)acetic acid)]
Cc1nc(C(=O)Nc2cccc(-c3cccc(NC(=O)c4nc(C)c(CN5CCCC[C@H]5C(=O)O)s4)c3Cl)c2C)sc1CN1CCCC[C@H]1C(=O)O [Example 54, (2S,2'S)-1,1′-(2,2′-(2-chloro-2′-methylbiphenyl-3,3′-diyl)bis(azanediyl)bis(oxomethylene)bis(4-methylthiazole-5,2-diyl))bis(methylene)dipiperidine-2-carboxylic acid]
Cc1nc(C(=O)Nc2cccc(-c3cccc(NC(=O)c4nc(C)c(CN[C@H](C(=O)O)C5CCOCC5)s4)c3Cl)c2C)sc1CN[C@H](C(=O)O)C1CCOCC1 [Example 55, (2S,2'S)-2,2′-(2,2′-(2-chloro-2′-methylbiphenyl-3,3′-diyl)bis(azanediyl)bis(oxomethylene)bis(4-methylthiazole-5,2-diyl))bis(methylene)bis(azanediyl)bis(2-(tetrahydro-2H-pyran-4-yl)acetic acid)]
Cc1nc(C(=O)N2CCc3c(-c4cccc5c4CCN5C(=O)c4nc(C)c(CN5CCCC[C@H]5C(=O)O)s4)cccc32)sc1CN1CCCC[C@H]1C(=O)O [Example 56, (2S,2'S)-1,1′-(2,2′-(4,4′-biindoline-1,1′-diylbis(oxomethylene))bis(4-methylthiazole-5,2-diyl))bis(methylene)dipiperidine-2-carboxylic acid]
Cc1nc(C(=O)N2CCc3c(-c4cccc5c4CCN5C(=O)c4nc(C)c(CN[C@H](C(=O)O)C5CCOCC5)s4)cccc32)sc1CN[C@H](C(=O)O)C1CCOCC1 [Example 57, (2S,2'S)-2,2′-(2,2′-(4,4′-biindoline-1,1′-diylbis(oxomethylene))bis(4-methylthiazole-5,2-diyl))bis(methylene)bis(azanediyl)bis(2-(tetrahydro-2H-pyran-4-yl)acetic acid)]
Cc1nc(C(=O)Nc2cccc(-c3cccc4c3CCN4C(=O)c3nc(C)c(CN4CCCC[C@H]4C(=O)O)s3)c2C)sc1CN1CCCC[C@H]1C(=O)O [Example 58, (S)-1-((2-(3-(1-(5-(((S)-2-carboxypiperidin-1-yl)methyl)-4-methylthiazole-2-carbonyl)indolin-4-yl)-2-methylphenylcarbamoyl)-4-methylthiazol-5-yl)methyl)piperidine-2-carboxylic acid]
Cc1nc(C(=O)Nc2cccc(-c3cccc4c3CCN4C(=O)c3nc(C)c(CN[C@H](C(=O)O)C4CCOCC4)s3)c2C)sc1CN[C@H](C(=O)O)C1CCOCC1 [Example 59, (S)-2-((2-(3-(1-(5-(((S)-carboxy(tetrahydro-2H-pyran-4-yl)methylamino)methyl)-4-methylthiazole-2-carbonyl)indolin-4-yl)-2-methylphenylcarbamoyl)-4-methylthiazol-5-yl)methylamino)-2-(tetrahydro-2H-pyran-4-yl)acetic acid]
Cc1nc(C(=O)Nc2cccc(-c3cccc4c3CCN4C(=O)c3nc(C)c(CN4CCCC[C@H]4C(=O)O)s3)c2Cl)sc1CN1CCCC[C@H]1C(=O)O [Example 60, (S)-1-((2-(3-(1-(5-(((S)-2-carboxypiperidin-1-yl)methyl)-4-methylthiazole-2-carbonyl)indolin-4-yl)-2-chlorophenylcarbamoyl)-4-methylthiazol-5-yl)methyl)piperidine-2-carboxylic acid]
Cc1nc(C(=O)Nc2cccc(-c3cccc4c3CCN4C(=O)c3nc(C)c(CN[C@H](C(=O)O)C4CCOCC4)s3)c2Cl)sc1CN[C@H](C(=O)O)C1CCOCC1 [Example 61, (S)-2-((2-(3-(1-(5-(((S)-carboxy(tetrahydro-2H-pyran-4-yl)methylamino)methyl)-4-methylthiazole-2-carbonyl)indolin-4-yl)-2-chlorophenylcarbamoyl)-4-methylthiazol-5-yl)methylamino)-2-(tetrahydro-2H-pyran-4-yl)acetic acid]
Cc1nc(C(=O)Nc2cccc(-c3cccc4c3CCN4C(=O)c3nc(C)c(CN4CCCC[C@H]4C(=O)O)s3)c2)sc1CN1CCCC[C@H]1C(=O)O [Example 62, (S)-1-((2-(3-(1-(5-(((S)-2-carboxypiperidin-1-yl)methyl)-4-methylthiazole-2-carbonyl)indolin-4-yl)phenylcarbamoyl)-4-methylthiazol-5-yl)methyl)piperidine-2-carboxylic acid]
Cc1nc(C(=O)Nc2cccc(-c3cccc4c3CCN4C(=O)c3nc(C)c(CN[C@H](C(=O)O)C4CCOCC4)s3)c2)sc1CN[C@H](C(=O)O)C1CCOCC1 [Example 63, (S)-2-((2-(3-(1-(5-(((S)-carboxy(tetrahydro-2H-pyran-4-yl)methylamino)methyl)-4-methylthiazole-2-carbonyl)indolin-4-yl)phenylcarbamoyl)-4-methylthiazol-5-yl)methylamino)-2-(tetrahydro-2H-pyran-4-yl)acetic acid]
Cc1c(NC(=O)c2nc3c(n2C)CNCC3)cccc1-c1cccc(NC(=O)c2nc3c(n2C)CNCC3)c1C [Example 64, N,N′-(2,2′-dimethylbiphenyl-3,3′-diyl)bis(3-methyl-4,5,6,7-tetrahydro-3H-imidazo[4,5-c]pyridine-2-carboxamide)]
O=C(O)CN1CCc2nc(C(=O)Nc3cccc(-c4cccc(NC(=O)c5nc6c(s5)CN(CC(=O)O)CC6)c4Cl)c3Cl)sc2C1 [Example 65, 2,2′-((((2,2′-dichloro-[1,1′-biphenyl]-3,3′-diyl)bis(azanediyl))bis(carbonyl))bis(6,7-dihydrothiazolo[5,4-c]pyridine-2,5(4H)-diyl))diacetic acid]
O=C(Nc1cccc(-c2cccc(NC(=O)c3ncc(CNCCO)s3)c2Cl)c1Cl)c1ncc(CNCCO)s1 [Example 66, N,N′-(2,2′-dichloro-[1,1′-biphenyl]-3,3′-diyl)bis(5-(((2-hydroxyethyl)amino)methyl)thiazole-2-carboxamide)]
